The results in this text go back to patent US20110059947A1, “ALPHA 7 NICOTINIC AGONISTS AND ANTIPSYCHOTICS” (Targacept, Inc., priority 2008, published 2011).

For one assay, the system named is db/db mice. Nature of the assay: Plasma glucose and body weight in obese db/db mice. In kind it is in vivo. The following applies: 1 mg/kg.
For assay [1], the system named is th(tk-)/th(tk-) mice. Kind of assay: Prepulse inhibition (PPI) and acoustic startle in th(tk-)/th(tk-) and control mice. In kind it is in vivo.
In assay [2] the test system is th(tk-)/th(tk-) mice. Kind of assay: Social behavior, nonsocial autogrooming and open field activity. In kind it is in vivo. The following applies: 1 mg/kg i.p. The procedure: B. […] On testing days, each subject received three tests: a social behavior test with a female, a social behavior test with a male, and an open-field test. There was a 30-minute interval between each test. Social behavior was tested using a variant of the resident-intruder paradigm, in which a stimulus animal was introduced into the subject's homecage for three minutes. Prior to testing the subjects' home cages were not changed for at least four days to allow them to establish the cage as their territory. Female stimulus animals were singly-housed, randomly cycling C57BI/6Js (Jackson Laboratories, Bar Harbor, Me.). Each subject was tested with a different stimulus animal and each stimulus animal was used only once per testing day. Male stimulus animals were singly-housed C57BI/6Js (Jackson Laboratories, Bar Harbor, Me.). Each subject was tested with a different stimulus animal and each stimulus animal was used only once per testing day. A stimulus female was placed into the cage of wild-type (n=8) and tk-/- (n=8) subjects. After three minutes, the stimulus female was removed. Thirty minutes later a stimulus male was placed into the subject's homecage. […] The behavior of the subject was quantified from the videotape using the Observer Mobile (Noldus Information Technologies, Sterling, Va.). […] Movement was analyzed in detail using the Clever Sys. […]

The next assay has as its system Sprague-Dawley rats. Kind of assay: Apomorphine-induced impairment of pre-pulse inhibition. The settings on record: haloperidol 0.3 mg/kg i.p., apomorphine 1.0 mg/kg s.c., p<0.001. In kind it is in vivo, rat.
[3] abbreviates: db/db mice with fat diet, vs vehicle-treated mice.

For the compound `Cc1ccc(C(=O)N[C@@H]2C3CCN(CC3)[C@H]2Cc2cccnc2)s1` [Compound B, (2S,3R)—N-(2-((3-pyridinyl)methyl)-1-azabicyclo[2.2.2]oct-3-yl)-5-methylthiophene-2-carboxamide], in the assay with db/db mice (setting [3]), the blood glucose levels entry is “significantly decreases” and the body weight gain result is “significantly decreases”. Besides, in the assay with db/db mice (db/db mice, weeks of treatment), the “time at which effects on glucose and weight gain become apparent” value was 6 weeks. Moreover, the “sensory gating (PPI and acoustic startle response)” value with th(tk-)/th(tk-) mice [1] (control (normal) mice, Compound B) is listed as “no effect on control”. Moreover, in the assay with th(tk-)/th(tk-) mice [1] (th(tk-)/th(tk-) mice, Compound B (0.1 and 1.0 mg/kg analyzed)), the “deficits in sensory gating (PPI and acoustic startle response)” value is reported as “reverse deficits in sensory gating”.

For the compound `COc1cccc([C@H](O)C2CCN(CCc3ccc(F)cc3)CC2)c1OC` [Compound M100907], the PPI result is listed as “no effect at any dose” in the assay on th(tk-)/th(tk-) mice [1] (control mice, M100907 any dose); “increases of PPI” in the assay on th(tk-)/th(tk-) mice [1] (transgenic mice, M100907 middle (0.1 mg/kg) and high (1 mg/kg) doses vs vehicle). In addition, the startle response entry with th(tk-)/th(tk-) mice [1] (control mice, M100907 any dose) is on record as “no effect at any dose”; in the assay with th(tk-)/th(tk-) mice [1] (treated transgenic groups vs vehicle, M100907), “significant decrease of startle response”. The “time spent investigating the stimulus animal” value in the assay on th(tk-)/th(tk-) mice [2] (TK- mice) is given as “significantly increased”. Further, the “investigation time of stimulus animal” value in the assay on th(tk-)/th(tk-) mice [2] (wild-type animals) is on record as “no effect on investigation time”.

Regarding `CN1CCN(C2=Nc3cc(Cl)ccc3Nc3ccccc32)CC1` [clozapine], in the assay with th(tk-)/th(tk-) mice [1] (clozapine 3 mg/kg), the PPI entry is “no effect” and the startle response result was “no effect”.

On to `OCCN1CCN(CC/C=C2/c3ccccc3Sc3ccc(C(F)(F)F)cc32)CC1` [flupenthixol], for which the startle response entry with th(tk-)/th(tk-) mice [1] (control mice, flupenthixol 1.0 mg/kg vs saline) is “decreased”; with th(tk-)/th(tk-) mice [1] (th(tk-)/th(tk-) mice, flupenthixol 1.0 mg/kg vs saline) it was “decreased”. Further, the PPI result is “no effect of dose” with th(tk-)/th(tk-) mice [1] (control mice, flupenthixol 0.25, 0.5, 1.0 mg/kg) and “increased PPI” with th(tk-)/th(tk-) mice [1] (th(tk-)/th(tk-) mice, flupenthixol 0.25, 0.5, 1.0 mg/kg, all three stimulus intensities, P<0.01).

Consider `O=C(CCCN1CCC(O)(c2ccc(Cl)cc2)CC1)c1ccc(F)cc1` [haloperidol, reference compound], for which the “PPI deficits induced by apomorphine” value in the assay with Sprague-Dawley rats was “significantly reversed”.

In the case of `OCCOCCN1CCN(C2=Nc3ccccc3Sc3ccccc32)CC1` [quetiapine], the startle response entry in the assay on th(tk-)/th(tk-) mice [1] (control mice, quetiapine any dose) is “no main effect”; with th(tk-)/th(tk-) mice [1] (transgenic mice, all doses of quetiapine vs saline, p<0.05), “significant decrease in startle response”. The PPI entry with th(tk-)/th(tk-) mice [1] (control mice, quetiapine any dose examined) is given as “no significant main effect”; in the assay with th(tk-)/th(tk-) mice [1] (th(tk-)/th(tk-) mice, quetiapine 7.0 mg/kg, p<0.001) it was “normalized the reduced PPI”; in the assay on th(tk-)/th(tk-) mice [1] (th(tk-)/th(tk-) mice, quetiapine lower doses (below 7.0 mg/kg)), “no effect”. In addition, the “PPI, main effect” value in the assay with th(tk-)/th(tk-) mice [1] (transgenic th(tk-)/th(tk-) mice, quetiapine 3.0 mg/kg alone) is listed as “no significant main effect”.
